Here are results for seven molecules from patent publication US5530126A, “Process for the preparation of substituted 6-(pyrazol-3yl)-1,4-benzoxazin-3-ones” (Monsanto Company, priority 1994, dated 1996).

Type in all cases: in vivo
The subject of test [1] is Cocklebur. Kind of test: Pre-emergence herbicide test. To be noted: Xanthium strumarium, 1.12 kg/ha, read-out: % plant inhibition (Cobu). The gist of the method: (§1)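 Seeds placed atop topsoil compacted to 0.95 to 1.27 cm below pan rim. Active ingredient (known amount) applied to seed bed in organic solvent or water. Untreated topsoil layer added to level; greenhouse growth with subirrigation; % inhibition at usually 11 days.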

Test [2] concerns Annual bluegrass. Kind of test: Pre-emergence herbicide test. Conditions: 1.12 kg/ha, read-out: % plant inhibition (Anbg). The gist of the method: as §1
Test [3] has as its system Indian Mustard. The test is described as follows: Pre-emergence herbicide test. To be noted: Brassica juncea, 1.12 kg/ha, read-out: % plant inhibition (Inmu). In short, it runs like this: as §1
The subject of test [4] is Yellow nutsedge. The test is described as follows: Pre-emergence herbicide test. To be noted: Cyperus, 1.12 kg/ha, read-out: % plant inhibition (Yens). In short, it runs like this: as §1
The subject of test [5] is Barnyardgrass. The test is described as follows: Pre-emergence herbicide test. To be noted: Echinochloa crus-galli, 1.12 kg/ha, read-out: % plant inhibition (Bygr). The gist of the method:
as §1

Test [6] deals with Seedling johnsongrass. Kind of test: Pre-emergence herbicide test. To be noted: Sorghum halepense, 1.12 kg/ha, read-out: % plant inhibition (Sejg). The gist of the method:
as §1

Test [7] has as its system Wild buckwheat. The test is described as follows: Pre-emergence herbicide test. To be noted: Fallopia convolvulus, 1.12 kg/ha, read-out: % plant inhibition (Wibw). In short, it runs like this: as §1
Test [8] has as its system Downy Brome. The test is described as follows: Pre-emergence herbicide test. To be noted: Bromus tectorum, 1.12 kg/ha, read-out: % plant inhibition (Dobr). The gist of the method: as §1
In test [9] the test system is Velvetleaf. Kind of test: Pre-emergence herbicide test. Conditions: Abutilon theophrasti, 1.12 kg/ha, read-out: % plant inhibition (Vele). In short, it runs like this:
as §1

The test system of test [10] is Morningglory. Kind of test: Pre-emergence herbicide test. Conditions: Ipomoea, 1.12 kg/ha, read-out: % plant inhibition (Mogl). In short, it runs like this: as §1
Test [11] has as its system Cocklebur. Kind of test: Post-emergence herbicide test. To be noted: Xanthium strumarium, 1.12 kg/ha, read-out: % plant inhibition (Cobu). The gist of the method: (§2)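 Plants grown from seed or vegetative propagules in greenhouse soil pans were sprayed at two to three weeks of age by atomizer at 170.3 kPa, delivering 1870 L/Ha containing about 0.4% v/v emulsifier. Injury versus untreated controls was scored as percent inhibition at about 11 days, sometimes again near 25 days.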

The subject of test [12] is Annual bluegrass. The test is described as follows: Post-emergence herbicide test. To be noted: 1.12 kg/ha, read-out: % plant inhibition (Anbg). The gist of the method:
as §2

The subject of test [13] is Indian Mustard. Kind of test: Post-emergence herbicide test. Conditions: Brassica juncea, 1.12 kg/ha, read-out: % plant inhibition (Inmu). In short, it runs like this:
as §2

Test [14] relates to Yellow nutsedge. The test is described as follows: Post-emergence herbicide test. To be noted: Cyperus, 1.12 kg/ha, read-out: % plant inhibition (Yens). The gist of the method:
as §2

The test system of test [15] is Barnyardgrass. Kind of test: Post-emergence herbicide test. Conditions: Echinochloa crus-galli, 1.12 kg/ha, read-out: % plant inhibition (Bygr). The gist of the method: as §2
Test [16] concerns Seedling johnsongrass. The test is described as follows: Post-emergence herbicide test. To be noted: Sorghum halepense, 1.12 kg/ha, read-out: % plant inhibition (Sejg). In short, it runs like this: as §2
The subject of test [17] is Wild buckwheat. Kind of test: Post-emergence herbicide test. To be noted: Fallopia convolvulus, 1.12 kg/ha, read-out: % plant inhibition (Wibw). In short, it runs like this: as §2
For test [18], the system named is Downy Brome. The test is described as follows: Post-emergence herbicide test. To be noted: Bromus tectorum, 1.12 kg/ha, read-out: % plant inhibition (Dobr). The gist of the method: as §2
Test [19] deals with Velvetleaf. The test is described as follows: Post-emergence herbicide test. Conditions: Abutilon theophrasti, 1.12 kg/ha, read-out: % plant inhibition (Vele). In short, it runs like this:
as §2

The test system of test [20] is Morningglory. Kind of test: Post-emergence herbicide test. To be noted: Ipomoea, 1.12 kg/ha, read-out: % plant inhibition (Mogl). In short, it runs like this:
as §2

Consider `C#CCOc1cc(-c2c(Cl)c(C(F)(F)F)nn2C)c(F)cc1Cl` [Compound 76], for which the inhibition at 1120 g/ha in the test with Cocklebur [1] was found to be 20%; in the test on Annual bluegrass [2] it was 10%; in the test on Indian Mustard [3], 60%; in the test on Yellow nutsedge [4] it was 0%; in the test on Barnyardgrass [5], 0%; with Seedling johnsongrass [6] it was 0%. The inhibition at 1120 g/ha in the test on Wild buckwheat [7] stood at 100%; with Downy Brome [8] it was 10%; with Velvetleaf [9] it was 50%; with Morningglory [10] it was 40%; in the test with Cocklebur [11], 40%; with Annual bluegrass [12], 40%. For the same molecule, the inhibition at 1120 g/ha in the test with Indian Mustard [13] was determined as 70%; in the test on Yellow nutsedge [14], 10%; in the test on Barnyardgrass [15] it was 50%; with Seedling johnsongrass [16], 40%; with Wild buckwheat [17], 100%; in the test on Downy Brome [18], 30%. Further, the inhibition at 1120 g/ha in the test with Velvetleaf [19] came to 90%; in the test on Morningglory [20], 50%.

In the case of `Cn1nc(-c2cc(C3OCCS3)c(Cl)cc2F)c(Cl)c1C(F)(F)F` (centres unmarked) [Compound 102], the inhibition at 1120 g/ha in the test on Cocklebur [1] worked out at 30%; with Annual bluegrass [2], 60%; in the test with Indian Mustard [3], 100%; with Yellow nutsedge [4] it was 20%; in the test on Barnyardgrass [5] it was 80%; in the test on Seedling johnsongrass [6], 90%. For the same molecule, the inhibition at 1120 g/ha in the test with Wild buckwheat [7] came out at 100%; with Downy Brome [8], 80%; in the test on Velvetleaf [9], 100%; with Morningglory [10], 100%; with Cocklebur [11], 60%; with Annual bluegrass [12], 90%. Moreover, the inhibition at 1120 g/ha in the test on Indian Mustard [13] was 100%; in the test on Yellow nutsedge [14] it was 20%; with Barnyardgrass [15], 90%; in the test with Seedling johnsongrass [16], 100%; in the test with Wild buckwheat [17] it was 100%; with Downy Brome [18], 100%. The inhibition at 1120 g/ha in the test on Velvetleaf [19] and with Morningglory [20] was 100% each time.

For `CCOC(=O)C(C)Oc1cc(-c2nn(C)c(C(F)(F)F)c2Cl)c(F)cc1Cl` (centres unmarked) [Compound 229, 2-(2-Chloro-5-(4-chloro-1-methyl-5-(trifluoromethyl)-1H-pyrazol-3-yl)-4-fluorophenoxy)propanoic acid, ethyl ester], the inhibition at 1120 g/ha in the test on Cocklebur [1] was found to be 90%; with Annual bluegrass [2] it was 100%; in the test on Indian Mustard [3] it was 100%; in the test with Yellow nutsedge [4], 60%; in the test on Barnyardgrass [5], 90%; in the test on Seedling johnsongrass [6] it was 100%. The inhibition at 1120 g/ha with Wild buckwheat [7] was determined as 100%; with Downy Brome [8], 100%; in the test with Velvetleaf [9], 100%; with Morningglory [10], 100%; in the test on Cocklebur [11] it was 100%; in the test on Annual bluegrass [12], 70%. The inhibition at 1120 g/ha in the test on Indian Mustard [13] is 100%; in the test with Yellow nutsedge [14], 40%; with Barnyardgrass [15] it was 100%; in the test on Seedling johnsongrass [16], 100%; with Wild buckwheat [17], 100%; in the test on Downy Brome [18] it was 90%. The inhibition at 1120 g/ha with Velvetleaf [19] and with Morningglory [20] was 100% throughout.

As for `CCOC(=O)C(C)=Cc1cc(-c2nn(C)c(C(F)(F)F)c2Cl)c(F)cc1Cl` [Compound 127], the inhibition at 1120 g/ha in the test on Cocklebur [1] is 20%; in the test on Annual bluegrass [2], 0%; in the test with Indian Mustard [3], 90%; with Yellow nutsedge [4] it was 0%; with Barnyardgrass [5] it was 30%; in the test with Seedling johnsongrass [6] it was 20%. The inhibition at 1120 g/ha in the test on Wild buckwheat [7] is 100%; with Downy Brome [8], 0%; in the test on Velvetleaf [9], 100%; with Morningglory [10], 70%; with Cocklebur [11] it was 100%; in the test on Annual bluegrass [12] it was 20%. The inhibition at 1120 g/ha in the test with Indian Mustard [13] turned out to be 100%; in the test on Yellow nutsedge [14], 20%; in the test with Barnyardgrass [15], 60%; with Seedling johnsongrass [16] it was 100%; with Wild buckwheat [17], 100%; with Downy Brome [18], 80%. The inhibition at 1120 g/ha in the test on Velvetleaf [19] and in the test with Morningglory [20] was 100% each time.

As for `CC(C)CCOC(=O)c1cc(-c2nn(C)c(C(F)(F)F)c2Cl)c(F)cc1Cl` [Compound 141], the inhibition at 1120 g/ha in the test with Cocklebur [1] worked out at 70%; in the test with Annual bluegrass [2], 20%; with Indian Mustard [3], 80%; with Yellow nutsedge [4], 0%; in the test with Barnyardgrass [5], 20%; in the test on Seedling johnsongrass [6], 50%. The inhibition at 1120 g/ha with Wild buckwheat [7] is 90%; in the test on Downy Brome [8], 70%; in the test with Velvetleaf [9], 70%; with Morningglory [10], 80%; in the test with Cocklebur [11], 90%; in the test with Annual bluegrass [12], 90%. Besides, the inhibition at 1120 g/ha in the test with Indian Mustard [13] is 80%; in the test with Yellow nutsedge [14], 0%; with Barnyardgrass [15], 70%; in the test on Seedling johnsongrass [16], 90%; with Wild buckwheat [17] it was 100%; with Downy Brome [18] it was 100%. Also, the inhibition at 1120 g/ha with Velvetleaf [19] and with Morningglory [20] was 100% in each case.

On to `Cn1nc(-c2cc(O)c(Cl)cc2F)c(Cl)c1C(F)(F)Cl` [Compound 329], for which the inhibition at 1120 g/ha in the test with Cocklebur [1] came to 0%; in the test with Annual bluegrass [2], 0%; in the test with Indian Mustard [3], 90%; in the test with Yellow nutsedge [4], 0%; in the test with Barnyardgrass [5], 0%; in the test with Seedling johnsongrass [6] it was 0%. Moreover, the inhibition at 1120 g/ha with Wild buckwheat [7] was determined as 100%; in the test with Downy Brome [8], 0%; in the test with Velvetleaf [9], 100%; with Morningglory [10] it was 70%; in the test on Cocklebur [11], 90%; in the test on Annual bluegrass [12], 90%. Also, the inhibition at 1120 g/ha with Indian Mustard [13] came out at 100%; in the test with Yellow nutsedge [14] it was 0%; with Barnyardgrass [15], 90%; with Seedling johnsongrass [16], 90%; in the test with Wild buckwheat [17], 100%; in the test with Downy Brome [18] it was 90%. The inhibition at 1120 g/ha with Velvetleaf [19] and in the test on Morningglory [20] was 100% each time.

`CC(O)c1cc(-c2nn(C)c(C(F)(F)F)c2Cl)c(F)cc1Cl` (centres unmarked) [Compound 107]: the inhibition at 1120 g/ha in the test on Cocklebur [1] is 20%; in the test with Annual bluegrass [2] it was 20%; with Indian Mustard [3], 80%; in the test with Yellow nutsedge [4], 0%; in the test on Barnyardgrass [5], 80%; in the test on Seedling johnsongrass [6], 40%. Also, the inhibition at 1120 g/ha was 80% in the test on Wild buckwheat [7]; 30% in the test with Downy Brome [8]; 90% with Velvetleaf [9]; 100% with Morningglory [10]; 50% with Cocklebur [11]; 0% with Annual bluegrass [12]. Besides, the inhibition at 1120 g/ha in the test with Indian Mustard [13] was determined as 40%; in the test on Yellow nutsedge [14] it was 10%; with Barnyardgrass [15], 30%; with Seedling johnsongrass [16], 20%; in the test on Wild buckwheat [17], 90%; in the test with Downy Brome [18], 0%. Further, the inhibition at 1120 g/ha in the test on Velvetleaf [19] was determined as 90%; in the test on Morningglory [20], 50%.
